Results from patent US7087375B1, “Method for determining the mechanism of HIV RT inhibitors” (priority 2000, dated 2006).
pIC50: −log10 of the molar value.

Key:
[1] = test system: HXB2 site-directed mutant T69S-SS; format: cell-based; details: virus T69S-SS
[2] = test system: HXB2 site-directed mutant M41L, T69S-SS, T215Y; format: cell-based; details: virus M41L
[3] = test system: HXB2 site-directed mutant M41L, T69S-SG, T215Y; format: cell-based; details: virus M41L
[4] = test system: HXB2 site-directed mutant V75T; format: cell-based; details: virus V75T
[5] = test system: HXB2 site-directed mutant D67N, K70R; format: cell-based; details: virus D67N
[6] = test system: HXB2 site-directed mutant T69S-SG; format: cell-based; details: virus T69S-SG
[7] = test system: HXB2 site-directed mutant Q151M; format: cell-based; details: virus Q151M
[8] = test system: HXB2 site-directed mutant M41L, T215Y; format: cell-based; details: virus M41L
wild type HXB2 virus = test: HIV drug susceptibility assay (recombinant virus, MT-4 cells); details: Human immunodeficiency virus 1, HXB2, MT4, read-out: mean IC50 for the wild type control virus
Protocol: Phenotypic susceptibility of these viable recombinant viruses to nucleoside analogs was then determined. […] Fold resistance values were calculated by dividing the mean 50% inhibitory concentration (IC50) for a recombinant virus from a mutant clone by the mean IC50 for recombinant wild type virus (HXB2).

[9] = test system: HXB2 site-directed mutant M41L, M184V, T215Y; format: cell-based; details: virus M41L
[10] = test system: HXB2 site-directed mutant M41L, D67N, K70R, M184V, T215Y; format: cell-based; details: virus M41L
[11] = test system: HXB2 site-directed mutant M41L, T69S-AG, T215Y; format: cell-based; details: virus M41L
[12] = test system: HXB2 site-directed mutant T69S-AG; format: cell-based; details: virus T69S-AG

With `Nc1nc(NC2CC2)c2ncn([C@H]3C=C[C@@H](CO)C3)c2n1` [Abacavir, abacavir] the “Fold resistance in IC50 relative to HXB2” value [1] was 3.0 fold, the “Fold resistance in IC50 relative to HXB2” value [2] was 4.6 fold and the “Fold resistance in IC50 relative to HXB2” value [3] was 9.6 fold. The “Fold resistance in IC50 relative to HXB2” value [4] was 1.8 fold, the “Fold resistance in IC50 relative to HXB2” value [5] was 1.8 fold and the “Fold resistance in IC50 relative to HXB2” value [6] was 4.0 fold. The “Fold resistance in IC50 relative to HXB2” value [7] was 2.8 fold, the “Fold resistance in IC50 relative to HXB2” value [8] was 4.4 fold and the pIC50 (wild type HXB2 virus) was 5.68. The “Fold resistance in IC50 relative to HXB2” value [9] was 7.1 fold, the “Fold resistance in IC50 relative to HXB2” value [10] was 4.1 fold and the “Fold resistance in IC50 relative to HXB2” value [11] was 12.0 fold. The “Fold resistance in IC50 relative to HXB2” value [12] was 7.0 fold.
With `Nc1ccn([C@H]2CC[C@@H](CO)O2)c(=O)n1` [ddC, zalcitabine] the “Fold resistance in IC50 relative to HXB2” value [1] was 3.2 fold, the “Fold resistance in IC50 relative to HXB2” value [2] was 1.5 fold and the “Fold resistance in IC50 relative to HXB2” value [3] was 2.8 fold. The “Fold resistance in IC50 relative to HXB2” value [4] was 3.0 fold, the “Fold resistance in IC50 relative to HXB2” value [5] was 1.3 fold and the “Fold resistance in IC50 relative to HXB2” value [6] was 1.7 fold. For the same compound, the “Fold resistance in IC50 relative to HXB2” value [7] was 5.4 fold, the “Fold resistance in IC50 relative to HXB2” value [8] was 2.5 fold and the pIC50 (wild type HXB2 virus) was 6.15. The “Fold resistance in IC50 relative to HXB2” value [9] was 5.0 fold, the “Fold resistance in IC50 relative to HXB2” value [10] was 5.1 fold and the “Fold resistance in IC50 relative to HXB2” value [11] was 2.5 fold. For the same compound, the “Fold resistance in IC50 relative to HXB2” value [12] was 2.8 fold.
For `O=c1[nH]cnc2c1ncn2[C@H]1CC[C@@H](CO)O1` [ddI, didanosine], the “Fold resistance in IC50 relative to HXB2” value [1] was 4.3 fold, the “Fold resistance in IC50 relative to HXB2” value [2] was 2.5 fold and the “Fold resistance in IC50 relative to HXB2” value [3] was 5.0 fold. The “Fold resistance in IC50 relative to HXB2” value [4] was 2.5 fold, the “Fold resistance in IC50 relative to HXB2” value [5] was 0.3 fold and the “Fold resistance in IC50 relative to HXB2” value [6] was 2.1 fold. For the same compound, the “Fold resistance in IC50 relative to HXB2” value [7] was 3.5 fold, the “Fold resistance in IC50 relative to HXB2” value [8] was 0.9 fold and the pIC50 (wild type HXB2 virus) was 5.80. The “Fold resistance in IC50 relative to HXB2” value [9] was 8.0 fold, the “Fold resistance in IC50 relative to HXB2” value [10] was 2.4 fold and the “Fold resistance in IC50 relative to HXB2” value [11] was 6.5 fold. For the same compound, the “Fold resistance in IC50 relative to HXB2” value [12] was 3.8 fold.
